Our source for the Ki values is ChEMBL document CHEMBL1151096, “7-aminoalkyl-2-amino-1,2,3,4-tetrahydro-2-naphthoic acids as inhibitors of tryptophan uptake” (Bioorg Med Chem Lett, 1992).

For the assay, the system named is WiDr. The assay is described as follows: Compound was tested for inhibition of 14C-Tryptophan uptake in WiDr human adenocarcinoma cells and the effect was determined at 0-100 uM concentration. The format is functional, cell-based.
For `NC1(C(=O)O)CCc2ccc(N(CCCl)CCCl)cc2C1` (stereo not drawn), the affinity, expressed as Ki, was 800 nM.
In turn, `Nc1ccc2c(c1)CC(N)(C(=O)O)CC2` (stereo not drawn) came in with a Ki of 34000 nM.
For `NC1(C(=O)O)CCc2ccc(N(CCO)CCO)cc2C1` (stereo not drawn) the value was 1400 nM; for `NC1(C(=O)O)CCc2ccccc2C1` (stereo not drawn), 37000 nM; for `CC(C)Nc1ccc2c(c1)CC(N)(C(=O)O)CC2` (stereo not drawn), 600 nM.
Take `CN(C)c1ccc2c(c1)CC(N)(C(=O)O)CC2` (stereo not drawn): affinity was put at a Ki of 1400 nM.
Take `CCCN(CCC)c1ccc2c(c1)CC(N)(C(=O)O)CC2` (stereo not drawn): the Ki is 7400 nM.
For `CCCNc1ccc2c(c1)CC(N)(C(=O)O)CC2` (stereo not drawn) the value was 1700 nM.

As a reminder, the Ki is a dissociation constant, usually derived from enzyme kinetics or from competition with a known ligand. Lower therefore signals tighter binding.
